Holding throughout (format): cell-based
In test [1] the test system is Streptococcus mutans UA159. As to the kind of experiment: growth of S. mutans in planktonic culture (optical density at 600 nm, BHI medium). Conditions: rich medium, FIG. 1. The protocol:
Bacterial Strain. The strain of Streptococcus mutans used in these experiments is referred to as UA159, the genomic type strain of these organisms (Murchison et al., Infect. Immun. 54(2):273-82 (1986); Ajdic et al., Proc. Natl. Acad. Sci. USA 99(22):14434-9 (2002)). Growth experiments. Two types of growth experiments were conducted: growth of the organism in planktonic culture and growth of the organism in a mono-species biofilm culture. In the planktonic culture experiments, the effects of simvastatin concentration on the growth ability of Streptococcus mutans UA159 was determined. In the second set of experiments, the effects of simvastatin concentration on the ability of S. mutans to produce extracellular polysaccharides (EPS), which is highly related to its ability to grow and survive on the surfaces of teeth (Yamashita et al., Infect. Immun 61(9):3811-7 (1993)), was determined. The planktonic experiments were conducted by growing S. mutans in Brain Heart Infusion medium (BHI) supplemented with specific concentrations of simvastatin dissolved in 1% ethanol/99% water. Simvastatin was obtained from Sigma Chemical Co. (St. Louis, Mo.). Growth was monitored as increasing optical density at 600 nm, using a BioScreen C automated-recording instrument, set at 37° C. and with shaking set at 10 seconds, every 15 minutes, to ensure suspension of the culture (Growth Curves USA, N.J.). […]

Test [2] concerns E. faecalis. Kind of test: minimum inhibitory concentration against a panel of human pathogens. Conditions: Enterococcus faecalis. The method, then:
(§1) Using well established methodologies, the minimum inhibitory concentration of simvastatin was determined against a panel of human pathogens.

Test [3] relates to E. faecium. The test is described as above. Particulars: Enterococcus faecium. The method, then: as §1
Test [4] has as its system Klebsiella. Described as above. The protocol:
as §1

The subject of test [5] is P. aeruginosa. The description is as above. Conditions: Pseudomonas aeruginosa. The method, then: as §1
Test [6] deals with S. aureus. The description is as above. Conditions: Staphylococcus aureus. The protocol: as §1
The test system of test [7] is S. mutans. Described as above. Particulars: Streptococcus mutans. The protocol: as §1

Converted amounts (≈) assume the structure as drawn.

The MIC is the least concentration at which growth counts as inhibited. Lower therefore signals a more susceptible organism. For `CCC(C)(C)C(=O)O[C@H]1C[C@@H](C)C=C2C=C[C@H](C)[C@H](CC[C@@H]3C[C@@H](O)CC(=O)O3)[C@H]21` [simvastatin], the “concentration at which growth was effectively halted” value in test [1] is ≥ 64 µg/mL. Moreover, the MIC in test [2] was 64 µg/mL (≈ 153 µM); in test [3], 64 µg/mL (≈ 153 µM); in test [4], 64 µg/mL (≈ 153 µM); in test [5] it was > 256 µg/mL; in test [6] it was 64 µg/mL (≈ 153 µM); in test [7] it was 16 µg/mL (≈ 38.2 µM).

(Values after patent publication US20140186271A1, “REDUCING DENTAL CARIES” (UNIVERSITY OF ROCHESTER, priority 2011, published 2014).)
